The test system of one series is HeLa cells. Put plainly: Ouabain treatment of transfected HeLa cells (survival, MTT cell viability). The format is cell-based, human. Conditions: 1 μM ouabain. How it is done: Constructs were transfected by calcium phosphate (HeLa cells) following standard procedures or by Lipofectamine (COS-7 cells), (Gibco, Invitrogene Co., Carlsbad, Calif., USA).
Cell viability was measured with the MTT (13) reduction assay after 12, 24, 36, 48 and 60 hours. Each experiment was made in triplicate and statistical analysis was done by Student's t-test (homoscedastic).
(§1) As all vertebrate cells present Na,K ATPase activity, the endogenous Na,K pump activity of HeLa cells was quenched to test the ion transport performance of the exogenous mutant forms. A site-directed mutagenesis was carried out to abolish the natural ouabain sensitivity of the ATP1A2 construct by mutagenizing two amino acids, Q116R and N127D, in the first extracellular loop that is part of the ouabain binding site of Na,K ATPase (15).
Constructs were transfected by calcium phosphate (HeLa cells) following standard procedures.
Cell viability was measured with the MTT reduction assay after 24,48 and 72 hours of 1 μM ouabain challenge. We performed two independent experiments and in each experiment, datapoints are in triplicate.

A further series has as its system HEK293. Nature of the series: Ouabain treatment of transfected HEK293 cells. The class given is cell-based, human. Conditions: 1 μM ouabain; pA2Oua^r-wt versus mock transfected cells. How it is done: as §1

As for `C[C@@H]1O[C@@H](O[C@H]2C[C@@H](O)[C@]3(CO)[C@H]4[C@H](O)C[C@]5(C)[C@@H](C6=CC(=O)OC6)CC[C@]5(O)[C@@H]4CC[C@]3(O)C2)[C@H](O)[C@H](O)[C@H]1O` [ouabain], in the series on HeLa cells (HeLa cells transfected with ouabain-resistant ATP1A2 construct pA2Oua^r-wt), the “cell survival in ouabain-containing media” value is “can survive and grow”. Besides, the “cell survival under ouabain treatment” value with HeLa cells (HeLa cells transfected with ouabain-resistant T378N (AHC) ATP1A2 construct) is listed as “did not survive”; with HeLa cells (HeLa cells transfected with pA2Oua^r-P764 (L764P)) it was “failed to survive”; in the series on HeLa cells (HeLa cells transfected with pA2Oua^r-R887 (W887R)), “failed to survive”; with HeLa cells (simulated heterozygous state, equal amount of wild-type and T378N mutant cDNAs) it was “intermediate behaviour”; with HeLa cells (simulated heterozygous states, equal amounts of wild-type and mutant (P764 or R887) constructs), “intermediate behavior”. Also, in the series on HeLa cells (mock transfected HeLa cells (wild-type ATP1A2, non-ouabain resistant)), the “time to death of cells in ouabain-containing media” value lay in the range of 36 to 48 h. For the same molecule, the “cell survival in ouabain-containing media compared with HeLa” value with HEK293 is recorded as “Identical results”.
